| SMILES | melting point |
| --- | --- |
| CN(CCO)Cc1ccc(-c2ccc3c(Nc4ccc(Sc5nccn5C)c(Cl)c4)c(C#N)cnc3c2)nc1 | 197 to 199 °C |
| CCNc1ccc(-c2c(N)nc(N)nc2CC)cc1[N+](=O)[O-] | 275 to 276 °C |
| Cc1cc2[nH]c(=O)n(S(=O)(=O)c3ccc(Cl)cc3)c(=O)c2cc1C | 221 to 222 °C |
| CCCC12CCC(=O)C=C1c1c(cc(CCC(=O)O)c(Cl)c1Cl)C2 (configuration not stated) | 201 to 203 °C |
| CCCCCCCCCCCCCCOc1cccc(CO)c1 | 49 to 50 °C |
| OCCCCCCOc1ccc2ccccc2c1 | 53 to 56 °C |
| CCCN(CCN1CCN(C(=O)c2ccc3[nH]ccc3c2)CC1)C1CCc2ccc(O)cc2C1 (configuration not stated) | 194 to 199 °C |
| CCOC(=O)CCCC(=O)c1ccc(F)cc1 | 46 to 47 °C |
| COc1ccc(CC(=O)O)cc1OCCc1ccccc1 | 88 to 89 °C |
| CCCc1cc(O)cc2cc(-c3ccc(O)cc3)oc12 | 178 to 180 °C |
| CC(C)(C)c1cc(/C=C/C(=O)COc2ccccc2)cc(C(C)(C)C)c1O | 100 to 102 °C |
| COc1ccc(-c2nc3cccc(C(=O)NC4CN5CCC4CC5)c3o2)cc1 (configuration not stated) | 166 to 167 °C |
| COc1ccc(C2CCc3ccccc3C2=O)cc1 (configuration not stated) | 107 to 108 °C |
| Cc1ccc(C)n1-c1ccccc1OCC(O)CNC(C)C (configuration not stated) | 73 to 75 °C |
| Oc1ccc(-c2nnc(-c3ccccc3)o2)cc1 | 256 °C |
| N#Cc1cn(N(CO)c2c(Cl)cc(Cl)cc2Cl)c(=O)[nH]c1=O | > 300 °C |
| O=S(=O)(c1cc(-c2ccncc2)sc1-c1ccncc1)N1CCCC1 | 193 to 195 °C |
| [N-]=[N+]=NCc1ccc(Sc2ccc(Cl)cc2)c(Cl)c1 | 39 to 41 °C |
| COc1cc(C(=O)O)c(-c2c(C(=O)O)cc(OC)c3c2OCO3)c(OC)c1OC | 258 to 259 °C |
| O=C(C/C=C/c1ccccc1)Nc1cccc(-n2ccnc2)c1 | 130 to 133 °C |
| COC(=O)c1cc(OC)c(O)cc1-c1c(C(=O)OC)ccc2c1OCO2 | 172 to 173 °C |
| O=C(c1ccc(F)cc1)C1CCN(CCCn2c(=S)[nH]c3ccccc32)CC1 | 149 °C |
| CCCc1ccc(O)c(NC(=O)C(=O)OCC)c1 | 155 to 160 °C |
| CSc1ccc(N(C)S(=O)(=O)c2ccc(C)cc2)c(C#N)c1 | 139 to 140 °C |

| SMILES | melting point |
| --- | --- |
| O=C1CCC(N2Cc3cc(CNC(=S)Nc4ccc(SC(F)(F)F)cc4)ccc3C2=O)C(=O)N1 (configuration not stated) | 229 to 231 °C |
| CCCCOC(=O)C(=O)c1ccc2c(c1)C1(C)CCN(C)C1N2C (configuration not stated) | 56 to 61 °C |
| CCOC(=O)N1CCC(Nc2nc3cncnc3n2C2CC2)CC1 | 177 °C |
| OCc1cn(-c2c(Cl)cc(C(F)(F)F)cc2Cl)nn1 | 123 to 125 °C |
| CC(C)ON=Cc1nn(-c2c(Cl)cc(C(F)(F)F)cc2Cl)c(N)c1S(C)=O (configuration not stated) | 128 to 130 °C |
| CC(O)=C(C#N)C(=O)Nc1ccc(OC(F)(F)F)cc1 | 171 to 176 °C |
| Cc1cc2c(NC(=S)N3Cc4ccsc4CC3CO)cccc2cn1 (racemic) | 190 °C |
| Cc1ccc(S(=O)(=O)OCCc2nc(-c3cccc(Br)c3)oc2C)cc1 | 107 to 109 °C |
| COc1ccc(Cn2cnc3c(=O)[nH]c(N)nc32)cc1 | > 300 °C |
| C[C@]12CCC(=O)N[C@@H]1CCc1cc(Sc3ccc4ccccc4n3)ccc12 | 220 to 222 °C |
| CCOc1cc(C(Cl)(Cl)Cl)cc(OC)n1 | 36 to 38 °C |
| N#CC1=C(c2cccs2)Nc2n[nH]cc2C1c1cccc2nonc12 (configuration not stated) | 230 °C |
| CCCNc1cccc(-c2ccc(C(=O)O)c(=O)[nH]2)c1 | 251 to 254 °C |
| Cc1cc(C)cc(CC(C)(C)NCC(O)c2cc(OCc3ccccc3)cc3c2OCC(=O)N3)c1 (configuration not stated) | 220 to 222 °C |
| O=C(O)c1cn([C@@H]2C[C@@H]2F)c2c(F)c(N3C[C@@H]4CCCN[C@@H]4C3)c(F)cc2c1=O | 271 to 273 °C |
| O=S(=O)(Nc1ncnc(Cl)c1-c1ccc(Cl)cc1)c1ccc(C(F)(F)F)cc1 | 275 °C |
| Cc1cc(Br)cnc1CCCCNC1=NS(=O)(=O)c2cc(S(N)(=O)=O)ccc21 | 219 to 221 °C |
| COc1cc(-n2ccc(C)n2)ccc1C(=O)N1Cc2ccc(CN(C)C)n2Cc2ccccc21 | 196 to 198 °C |
| O=C(NC(=O)c1c(Cl)cccc1Cl)Nc1cc(Br)c(Br)cc1C(F)(F)F | 204 °C |
| COc1ccc(C2=NN(C3CCN(C(=O)CN4CCN(C)CC4)CC3)C(=O)C(C)(C)C2)c2c1OC(C)(C)C2 | 121 to 123 °C |
| O=C1Nc2ccccc2C(c2ccccc2)N1C1CCN(Cc2ccccc2)CC1 (configuration not stated) | 199 to 200 °C |
| O=C(c1ccccc1Cl)c1ccccc1C#CCN1C(=O)c2ccccc2C1=O | 149 to 150 °C |
| O=C(NCCNCc1ccccc1)c1ccc(Cl)cn1 | 45 to 46 °C |
| CCN(CC)CCCNC(=O)c1ccc(S(N)(=O)=O)cc1 | 122 to 123 °C |

| SMILES | melting point |
| --- | --- |
| COC(=O)CCc1cc(C(C)(C)C)c(O[Si](C)(C)Oc2c(C(C)(C)C)cc(CCC(=O)OC)cc2C(C)(C)C)c(C(C)(C)C)c1 | 122 to 129 °C |
| COc1cc(NC(=O)CCCCCN2CCN(C3CCCCC3)CC2)c2nccc(C)c2c1 | 109 to 110 °C |
| Cc1nc(-c2ccccc2)nc(-c2ccncc2)c1N | 208 to 209 °C |
| O=C(O)c1cc2ccc(OCCc3ccccc3)cc2oc1=O | 150 to 151 °C |
| CC1(C)CCC(C)(C)c2cc3[nH]c(S)nc3cc21 | > 300 °C |
| CC(=O)SCC(Cc1ccccc1)C(=O)Nc1cc(C(=O)O)cc(C(F)(F)F)c1 (configuration not stated) | 62 to 67 °C |
| COC(=O)CCNCc1ccc(-c2cc3ncnc(Nc4ccc5[nH]ccc5c4)c3s2)cc1 | 105 to 118 °C |
| Nc1nccc(OCC(F)(F)F)c1N | 126 to 128 °C |
| COc1cc(N)c(Cl)cc1C(C)=O | 114 to 116 °C |
| CC(O)(CF)C(=O)Nc1ccc(C(=O)c2ccccc2)cc1 (configuration not stated) | 146 to 148 °C |
| O=c1c2ccccc2nc(-c2sc(Nc3ccc(Cl)cc3)nc2-c2ccccc2)n1-c1ccccc1 | > 275 °C |
| CCOC(=O)C1=NNC(C)=C(C(=O)OCC)C1c1cccc([N+](=O)[O-])c1 (configuration not stated) | 117 °C |
| COCCNC(=O)Cc1ccc2ccn(C3CCN(CCc4ccc(F)cc4)CC3)c2c1 | 113 to 114 °C |
| O=C(O)c1cc(Cl)cs1 | 138 °C |
| Cc1c[nH]c(-c2cnn(-c3c(Cl)cc(C(F)(F)F)cc3Cl)n2)n1 | 217 to 218 °C |
| O=[N+]([O-])c1cc(I)ccc1Nc1cccc(-c2cncnc2)c1 | 214 to 217 °C |
| NNC(=O)c1cn2ccccc2n1 | 195 to 198 °C |
| CC(=NO)C(C)(C)NCC(F)(F)CNC(C)(C)C(CCn1ccnc1[N+](=O)[O-])=NO | 90 to 92 °C |
| CC(=O)NNc1ccc(NC(=S)Nc2ccccc2)cc1 | 205 to 207 °C |
| CC(CCCc1ccccc1)Oc1cc(O)c2c(c1)OC(C)(C)CC2=O (configuration not stated) | 83 to 84 °C |
| CCCCCC(Br)C(Br)CC(Br)C(Br)CCCCCCCBr (configuration not stated) | 62 to 64 °C |
| C1=Cc2ccccc2NC1 | 89 to 90 °C |
| CC1(C)CC(SCc2c(C(F)(F)F)nn(-c3ccccc3)c2Cl)=NO1 | 89 to 90 °C |
| CC(C)Oc1cc(CCC(=O)NS(=O)(=O)C2CCCCC2)n(Cc2ccc(Cl)cc2Cl)n1 | 137 to 138 °C |

Reference: a melting point compilation (Tetko et al.; mined from patent text by program, amines drawn as free bases though some values may be those of a salt)
